The source of these data is patent publication US7799770B2, “Solid body forms of mesoprogestin 11β-{4E-(hydroxyiminomethyl)-phenyl}-17α methoxymethyl-17β-methoxy-estra-4,9-dien-3-one” (Bayer Schering Pharma AG, priority 2000, dated 2010).

Series [1] in a line: Shelf life / accelerated ICH-stability test. It is filed as physicochemical. Here is the method:
In FIG. 5, an x-ray-powder diffractogram of amorphous 11β-[4E-(hydroxyiminomethyl)phenyl]-17α-methoxymethyl-17β-methoxy-estra-4,9-dien-3-one is depicted at time 0 (start), after 12 months at 25° C. and after 12 months at 40° C.
(§1) By the stability, negative influences of such conversions on the bio-availability of the active ingredient are avoided.

A further series in a line: Solubility in toluene. It is filed as physicochemical. An excerpt:
The production of the solvate form that is suitable for the solid final form of the oxime can be associated, according to the invention, with the separation of the Z-isomer and the dioximes. By a specific use of the thermodynamic instability of suitable solvates, preferably the solvate of methyl-tert-butyl ether (MTBE) in a solvent environment that is suitable for this purpose, complete dissolution of the solvate lattice is possible far above the solubility limit and even close to room temperature. […] A so-called cold melting is carried out. This state can be kept stable by adding suitable solvents as recrystallization inhibitors for technical applications. The supersaturation state can be stabilized for hours in toluene solution by adding only 5% by volume of methanol. Then, by adding solvating agent-solvent (MTBE) at suitable concentration (e.g., 100-130% by volume of MTBE, relative to the toluene that is used), the solvate lattice is built up again, whereby the contaminants remain in solution for the most part.

The next series concerns the target T1, progesterone receptor (Homo sapiens, UniProt P06401).
T1 sequence (P06401 1-933): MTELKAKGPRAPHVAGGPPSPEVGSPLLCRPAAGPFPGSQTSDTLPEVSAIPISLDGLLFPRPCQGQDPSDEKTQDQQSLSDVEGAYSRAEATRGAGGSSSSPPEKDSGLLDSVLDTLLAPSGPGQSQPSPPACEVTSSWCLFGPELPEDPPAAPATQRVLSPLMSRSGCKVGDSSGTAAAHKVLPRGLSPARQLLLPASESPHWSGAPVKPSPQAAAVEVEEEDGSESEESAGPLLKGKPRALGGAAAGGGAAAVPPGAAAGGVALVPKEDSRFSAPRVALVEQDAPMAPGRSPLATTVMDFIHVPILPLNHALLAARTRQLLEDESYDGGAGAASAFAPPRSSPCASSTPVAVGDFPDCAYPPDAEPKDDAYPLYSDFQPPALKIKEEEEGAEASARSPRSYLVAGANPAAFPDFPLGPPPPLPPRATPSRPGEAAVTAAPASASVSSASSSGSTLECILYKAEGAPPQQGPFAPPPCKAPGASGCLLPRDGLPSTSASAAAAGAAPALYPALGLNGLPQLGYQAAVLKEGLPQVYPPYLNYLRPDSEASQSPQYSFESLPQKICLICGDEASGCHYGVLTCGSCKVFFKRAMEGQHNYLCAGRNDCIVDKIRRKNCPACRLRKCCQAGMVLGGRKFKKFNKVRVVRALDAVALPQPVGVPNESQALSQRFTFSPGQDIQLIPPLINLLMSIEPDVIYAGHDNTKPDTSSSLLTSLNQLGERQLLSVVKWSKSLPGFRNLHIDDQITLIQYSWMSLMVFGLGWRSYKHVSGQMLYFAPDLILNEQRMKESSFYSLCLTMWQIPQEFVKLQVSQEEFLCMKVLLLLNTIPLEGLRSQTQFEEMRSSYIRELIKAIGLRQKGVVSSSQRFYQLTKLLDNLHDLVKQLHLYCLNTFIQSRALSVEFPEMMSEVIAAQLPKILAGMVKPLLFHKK
The conditions noted are these: according to EP-A-0 648 778 or DE-A-43 32 283; cited from earlier work.

The test system of series [2] is antiglucocorticoidal activity. Particulars: according to EP-A-0 648 778 or DE-A-43 32 283; cited from earlier work.
Series [3] can be described thus: Solubility studies (saturation solubility in water without and with 0.25% SDS). It is filed as physicochemical. Here is the method: 200 mg of substance was added at 25° C. into 50 ml of water (without and with 0.25% SDS (sodium lauryl sulfate)). Samples were taken after 0.5 hour, 2 hours, 5 hours and 24 hours.
Sampling: 0.45 μm filter attachment, dilution 1:1 with MeOH, HPLC.

Series [4] can be described thus: Stability of the physical structure during pharmaceutical processing (wet granulation, pelletizing). It is filed as physicochemical.
Text: as §1

Consider `COC[C@]1(OC)CC[C@H]2[C@@H]3CCC4=CC(=O)CCC4=C3[C@@H](c3ccc(/C=N/O)cc3)C[C@@]21C` [highly crystalline form of oxime J 867, 11β-[4E-(hydroxyiminomethyl)phenyl]-17α-methoxymethyl-17β-methoxy-estra-4,9-dien-3-one ansolvate], for which the “chemical stability compared with the amorphous form” value in series [1] (especially under stress (high temperatures and humidities)) is “higher than that of the amorphous form”.

In turn, `COC[C@]1(OC)CC[C@H]2[C@@H]3CCC4=CC(=O)CCC4=C3[C@@H](c3ccc(/C=N/O)cc3)C[C@@]21C` [MTBE solvate, 11β-[4E-(hydroxyiminomethyl)phenyl]-17α-methoxymethyl-17β-methoxy-estra-4,9-dien-3-one] showed a solubility in toluene in “Solubility in toluene” of 3.3 % by weight.

In the case of `COC[C@]1(OC)CC[C@H]2[C@@H]3CCC4=CC(=O)CCC4=C3[C@@H](c3ccc(/C=N/O)cc3)C[C@@]21C` [Oxime J867, 11β-[4E-(hydroxyiminomethyl)phenyl]-17α-methoxymethyl-17β-methoxy-estra-4,9-dien-3-one], on progesterone receptor, the “activity on the progesterone receptor compared with RU 486 (mifepristone)” value is listed as “same activity as RU 486 (mifepristone)”. In addition, in series [2], the “antiglucocorticoidal activity compared with RU 486” value was “significantly reduced”.

For `COC[C@]1(OC)CC[C@H]2[C@@H]3CCC4=CC(=O)CCC4=C3[C@@H](c3ccc(/C=N/O)cc3)C[C@@]21C` [amorphous form of oxime J867, 11β-[4E-(hydroxyiminomethyl)phenyl]-17α-methoxymethyl-17β-methoxy-estra-4,9-dien-3-one], the “time for which the high supersaturation level remains stable” value is recorded as “stable for several hours” in series [3] (in surfactant solution (sodium lauryl sulfate)) and “over 24 hours” in series [3] (in water). In addition, in series [1] (after 12 months, 40° C., 75% relative humidity), the “signs of recrystallization and/or chemical decomposition of the amorphous structure” value is on record as “does not show any signs of a recrystallization and/or chemical decomposition”. The “physical structure during pharmaceutical processing (conversion amorphous to highly crystalline, E/Z isomerization)” value in series [4] is listed as “remains stable”.
